The source of these data is US9902696B2, “1,4-substituted piperidine derivatives” (Cephalon, Inc., priority 2015, dated 2018).

pIC50: −log10 of the molar value. Where a name gives a salt, the structure may show the parent alone.

In the first experiment the target is T1, recombinant human baculovirus-expressed GST-tagged FASN (Homo sapiens, UniProt P49327).
T1 construct: GST
T1 sequence (P49327 whole entry): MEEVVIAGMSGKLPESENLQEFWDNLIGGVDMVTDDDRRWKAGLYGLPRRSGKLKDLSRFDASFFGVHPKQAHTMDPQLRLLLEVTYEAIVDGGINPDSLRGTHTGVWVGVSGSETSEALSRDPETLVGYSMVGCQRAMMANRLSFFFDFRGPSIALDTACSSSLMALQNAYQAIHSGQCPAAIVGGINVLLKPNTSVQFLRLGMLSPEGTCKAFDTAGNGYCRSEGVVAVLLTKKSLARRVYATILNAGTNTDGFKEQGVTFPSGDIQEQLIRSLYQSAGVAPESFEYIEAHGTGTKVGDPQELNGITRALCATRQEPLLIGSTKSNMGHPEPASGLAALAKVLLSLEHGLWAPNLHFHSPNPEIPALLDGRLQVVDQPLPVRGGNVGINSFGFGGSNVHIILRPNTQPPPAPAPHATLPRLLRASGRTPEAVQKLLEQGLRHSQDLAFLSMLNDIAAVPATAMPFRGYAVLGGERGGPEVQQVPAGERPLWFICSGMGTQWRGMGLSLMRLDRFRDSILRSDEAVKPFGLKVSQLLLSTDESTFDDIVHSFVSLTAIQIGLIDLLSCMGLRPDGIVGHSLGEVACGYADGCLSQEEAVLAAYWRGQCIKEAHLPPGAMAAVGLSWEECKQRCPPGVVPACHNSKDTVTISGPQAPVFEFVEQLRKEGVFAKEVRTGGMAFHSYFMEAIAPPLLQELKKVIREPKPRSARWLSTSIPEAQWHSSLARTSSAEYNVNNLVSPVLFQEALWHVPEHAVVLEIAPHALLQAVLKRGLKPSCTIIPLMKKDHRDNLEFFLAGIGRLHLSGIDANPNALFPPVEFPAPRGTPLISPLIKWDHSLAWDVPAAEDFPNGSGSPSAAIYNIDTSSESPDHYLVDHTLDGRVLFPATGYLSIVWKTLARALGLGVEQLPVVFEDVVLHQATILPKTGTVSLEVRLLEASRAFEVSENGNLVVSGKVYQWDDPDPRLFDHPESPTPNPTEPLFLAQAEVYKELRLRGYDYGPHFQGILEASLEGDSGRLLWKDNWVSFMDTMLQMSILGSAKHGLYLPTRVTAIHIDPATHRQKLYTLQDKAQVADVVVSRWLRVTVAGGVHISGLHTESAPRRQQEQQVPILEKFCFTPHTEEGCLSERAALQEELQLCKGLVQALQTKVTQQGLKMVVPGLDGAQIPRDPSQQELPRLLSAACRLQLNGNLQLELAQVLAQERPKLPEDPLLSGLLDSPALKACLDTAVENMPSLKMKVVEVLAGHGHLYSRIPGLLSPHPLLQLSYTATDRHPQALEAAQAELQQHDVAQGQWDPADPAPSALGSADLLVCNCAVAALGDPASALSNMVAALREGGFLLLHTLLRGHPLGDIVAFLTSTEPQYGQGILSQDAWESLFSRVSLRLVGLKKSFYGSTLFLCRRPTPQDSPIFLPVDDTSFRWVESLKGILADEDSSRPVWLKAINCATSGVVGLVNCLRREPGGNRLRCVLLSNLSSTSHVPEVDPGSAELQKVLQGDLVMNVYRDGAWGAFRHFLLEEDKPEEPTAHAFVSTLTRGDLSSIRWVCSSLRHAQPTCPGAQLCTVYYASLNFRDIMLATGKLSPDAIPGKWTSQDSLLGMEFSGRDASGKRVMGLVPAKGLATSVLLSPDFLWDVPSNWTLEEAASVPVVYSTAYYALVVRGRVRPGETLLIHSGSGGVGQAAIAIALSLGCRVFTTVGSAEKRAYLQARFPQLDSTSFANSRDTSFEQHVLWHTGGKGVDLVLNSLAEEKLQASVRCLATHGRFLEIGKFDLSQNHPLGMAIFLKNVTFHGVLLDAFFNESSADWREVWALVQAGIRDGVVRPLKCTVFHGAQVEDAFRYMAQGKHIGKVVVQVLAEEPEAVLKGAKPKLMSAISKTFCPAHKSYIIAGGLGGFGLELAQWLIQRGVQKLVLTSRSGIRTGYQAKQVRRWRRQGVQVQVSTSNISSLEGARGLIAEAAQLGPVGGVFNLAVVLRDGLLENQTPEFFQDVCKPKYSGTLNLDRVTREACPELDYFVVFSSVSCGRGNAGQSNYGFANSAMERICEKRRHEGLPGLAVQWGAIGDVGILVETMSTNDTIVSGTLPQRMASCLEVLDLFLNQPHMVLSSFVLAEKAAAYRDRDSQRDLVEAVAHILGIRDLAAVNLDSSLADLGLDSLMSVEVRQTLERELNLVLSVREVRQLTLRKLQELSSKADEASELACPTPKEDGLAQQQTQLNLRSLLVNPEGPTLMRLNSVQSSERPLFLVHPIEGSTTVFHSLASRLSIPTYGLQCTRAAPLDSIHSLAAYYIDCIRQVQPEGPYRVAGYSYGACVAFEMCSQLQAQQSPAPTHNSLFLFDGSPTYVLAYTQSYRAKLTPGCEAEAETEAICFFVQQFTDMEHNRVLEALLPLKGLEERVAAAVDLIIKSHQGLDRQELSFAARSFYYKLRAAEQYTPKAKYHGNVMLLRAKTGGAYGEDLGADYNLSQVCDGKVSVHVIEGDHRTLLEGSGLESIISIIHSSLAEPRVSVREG
In words: FASN enzyme activity assay, fluorescence-based detection of CoA with CPM. The format is biochemical. Conditions: 5 nM FASN, 150 μM NADPH, 10 μM acetyl-CoA, 25 μM malonyl-CoA, 90 minutes incubation; read-out: IC50 data for Additional Compounds of Formulae I-V(a): Activity. In short, it runs like this:
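Human GST-tagged FASN, baculovirus-expressed (5 nM), in 50 mM HEPES pH 7.5 with 150 μM NADPH, 10 μM acetyl-CoA, 25 μM malonyl-CoA, 0.5% DMSO; malonyl-CoA-started, 90 min. Released CoA detected with CPM (50 μM dilution), 30 min, fluorescence ex 390/em 530. IC50 from variable-slope sigmoidal fit of % inhibition versus log concentration.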
Turning to `Cc1c(-c2ccc(OC3CCN(C(=O)NCC4CCC4)CC3)cc2)ccc2cccnc12` [Example 560, N-(Cyclobutylmethyl)-4-[4-(8-methyl-7-quinolyl)phenoxy]piperidine-1-carboxamide], the pIC50 is 6.00 to 7.00.
Still for that read-out and setting: next, `Cc1c(-c2ccc(OC3CCN(C(=O)NCC4CC4)CC3)cc2)ccc2nccn12` [Example 595, N-(Cyclopropylmethyl)-4-[4-(5-methylimidazo[1,2-a]pyridin-6-yl)-phenoxy]piperidine-1-carboxamide]: 6.00 to 7.00; `Cc1c(-c2ccc(OC3CCN(C(=O)NCC(F)(F)F)CC3)cc2)ccc2nccn12` [Example 606, 4-[4-(5-Methylimidazo[1,2-a]pyridin-6-yl)phenoxy]-N-(2,2,2-trifluoro-ethyl)piperidine-1-carboxamide]: 5.00 to 6.00.

Still in this experiment, the particulars now being: 5 nM FASN, 150 μM NADPH, 10 μM acetyl-CoA, 25 μM malonyl-CoA, 90 minutes incubation; read-out: IC50 data for Compounds of Formulae I-V/V(a): Activity.
For `COc1cc2ncc(-c3ccc(OC4CCN(C(=O)C5CC5)CC4)cc3)cc2cc1F` [Example 445, Cyclopropyl-{4-[4-(6-fluoro-7-methoxyquinolin-3-yl)-phenoxy]-piperidin-1-yl}-methanone], the pIC50 is 5.00 to 6.00.
The same measure, in the same setting: next, `O=C(C1CC1)N1CCC(Oc2ccc(-c3ccc4c(Cl)nccc4c3)cc2)CC1` [Example 420, {4-[4-(1-Chloroisoquinolin-6-yl)-phenoxy]-piperidin-1-yl}-cyclopropyl-methanone]: 6.00 to 7.00; `CCNC(=O)N1CCC(Oc2ccc(-c3cnc4ccccc4c3C)cc2)CC1` [Example 84, 4-[4-(4-Methylquinolin-3-yl)-phenoxy]-piperidine-1-carboxylic acid ethylamide]: 7.00 to 9.00; `O=C(C1CC1)N1CCC(Oc2ccc(-c3ccc4nnc(C(F)(F)F)n4c3)cc2)CC1` [Example 160, Cyclopropyl-{4-[4-(3-trifluoromethyl-1,2,4-triazolo[4,3-a]pyridin-6-yl)-phenoxy]-piperidin-1-yl}-methanone, HCl]: 5.00 to 6.00.
Still for that read-out and setting: with `CCC(=O)N1CCC(Oc2ccc(-c3cnc4ccccc4c3)c(F)c2)CC1` [Example 200, 1-[4-(3-Fluoro-4-quinolin-3-yl-phenoxy)-piperidin-1-yl]-propan-1-one] the figure was 7.00 to 9.00; with `O=C(C1CC1)N1CCC(Oc2ccc(-c3cnc4c(c3)CCCC4)cc2)CC1` [Example 19, Cyclopropyl-{4-[4-(5,6,7,8-tetrahydro-quinolin-3-yl)-phenoxy]-piperidin-1-yl}-methanone], 5.00 to 6.00.
The same measure, in the same setting: next, `CNc1c(-c2ccc(OC3CCN(C(=O)[C@H]4CCCO4)CC3)cc2)ccc2cccnc12` [Example 325, {4-[4-(8-Methylaminoquinolin-7-yl)-phenoxy]-piperidin-1-yl}-(R)-tetrahydrofuran-2-yl-methanone]: 7.00 to 9.00.
As to `O=C(C1CCC1)N1CCC(Oc2ccc(-c3ccc(N4CCOCC4)nc3)cc2)CC1` [Example 388, Cyclobutyl-{4-[4-(6-morpholin-4-yl-pyridin-3-yl)-phenoxy]-piperidin-1-yl}-methanone], the pIC50 is 5.00 to 6.00.
Same read-out and setting: next, `CCC(=O)N1CCC(Oc2ccc(-c3cnc4sccc4c3)cc2)CC1` [Example 250, 1-[4-(4-Thieno[2,3-b]pyridin-5-yl-phenoxy)-piperidin-1-yl]-propan-1-one, TFA salt]: 7.00 to 9.00; `CN(c1ccc(-c2cnc3ccccc3c2)cc1)C1CCN(C(=O)C2CC2)CC1` [Example 525, Cyclopropyl-{4-[methyl-(4-quinolin-3-yl-phenyl)-amino]-piperidin-1-yl}-methanone, HCl]: 6.00 to 7.00.
As for `O=C(C1CC1)N1CCC(Oc2ccc(-c3ccc4cnccc4c3)cc2)CC1` [Example 466, Cyclopropyl-[4-(4-isoquinolin-6-yl-phenoxy)-piperidin-1-yl]-methanone], the pIC50 was 7.00 to 9.00.
With `COc1ccc(-c2ccc(OC3CCN(C(=O)OC(C)(C)C)CC3)cc2)cc1OC` [Example 489, 4-(3′,4′-Dimethoxybiphenyl-4-yloxy)-piperidine-1-carboxylic acid t-butyl ester], the pIC50 is 5.00 to 6.00.
The same measure, in the same setting: with `Nc1cc2cc(-c3ccc(OC4CCN(C(=O)C5CC5)CC4)cc3)ccc2cn1` [Example 423, {4-[4-(3-Aminoisoquinolin-6-yl)-phenoxy]-piperidin-1-yl}-cyclopropyl-methanone] the figure was 6.00 to 7.00; with `O=C(C1CC1)N1CCC(Oc2ccc(-c3ccc(Oc4ccccc4)cc3)cc2)CC1` [Example 509, Cyclopropyl-[4-(4′-phenoxybiphenyl-4-yloxy)-piperidin-1-yl]-methanone], 5.00 to 6.00; with `O=C(C1CC1)N1CCC(Oc2ccc(-c3cnc4sccc4c3)cc2)CC1` [Example 255, Cyclopropyl-[4-(4-thieno[2,3-b]pyridin-5-yl-phenoxy)-piperidin-1-yl]-methanone, TFA salt], 7.00 to 9.00.
Same read-out and setting: next, `O=C(C1CC1)N1CCC(Oc2ccc(-c3cnc4ccccc4c3)cc2)CC1` [Example 100, Cyclopropyl-[4-(4-quinolin-3-yl-phenoxy)-piperidin-1-yl]-methanone,HCl]: 7.00 to 9.00; `CCC(=O)N1CCC(Oc2ccc(-c3cnc4ccc(C)cc4c3)cc2)CC1` [Example 483, 1-{4-[4-(6-Methylquinolin-3-yl)-phenoxy]-piperidin-1-yl}-propan-1-one, HCl]: 7.00 to 9.00; `CCC(=O)N1CCC(Oc2ccc(-c3ccc4cccnc4c3C)cc2)C(C)C1` (mixture of isomers) [Example 375, 1-{3-Methyl-4-[4-(8-methylquinolin-7-yl)-phenoxy]-piperidin-1-yl}-propan-1-one, TFA salt]: 7.00 to 9.00.
The same measure, in the same setting: with `Cc1c(-c2ccc(OC3CCN(C(=O)[C@H]4CCCO4)C(C)C3)cc2)ccc2cccnc12` (mixture of isomers) [Example 362, {2-Methyl-4-[4-(8-methylquinolin-7-yl)-phenoxy]-piperidin-1-yl}-(R)-tetrahydrofuran-2-yl-methanone, HCl] the figure was 7.00 to 9.00; with `O=C(C1CCC1)N1CCC(Oc2ccc(-c3cc(O)c4ccnn4c3)cc2)CC1` [Example 427, Cyclobutyl-{4-[4-(4-hydroxy-pyrazolo[1,5-a]pyridin-6-yl)-phenoxy]-piperidin-1-yl}-methanone], 5.00 to 6.00.
For the molecule `O=C(C1CC1)N1CCC(Oc2ccc(-c3ccc4cccnc4c3)cn2)CC1` [Example 137, Cyclopropyl-[4-(5-quinolin-7-yl-pyridin-2-yloxy)-piperidin-1-yl]-methanone, HCl], the pIC50 was 6.00 to 7.00.
Still for that read-out and setting: next, `CCC(=O)N1CCC(Oc2ccc(-c3cnc4ncccc4c3)cc2)CC1` [Example 252, 1-[4-(4-[1,8]Naphthyridin-3-yl-phenoxy)-piperidin-1-yl]-propan-1-one, TFA salt]: 6.00 to 7.00; `Cc1c(-c2ccc(OC3CCN(C(=O)[C@H]4CCCO4)CC3)cc2)cnc2ccccc12` [Example 65, {4-[4-(4-Methylquinolin-3-yl)-phenoxy]-piperidin-1-yl}-(R)-tetrahydro-furan-2-yl-methanone]: 7.00 to 9.00; `O=C(C1CC1)N1CCC(Oc2ccc(-c3cc(F)cc(OCc4ccccc4)c3)cc2)CC1` [Example 507, [4-(5′-Benzyloxy-3′-fluorobiphenyl-4-yloxy)-piperidin-1-yl]-cyclopropyl-methanone]: 5.00 to 6.00.
Take `Cc1cnc(C)c2ccc(-c3ccc(OC4CCN(C(=O)[C@H]5CCCO5)CC4)cc3)cc12` [Example 471, [4-[4-(1,4-Dimethyl-6-isoquinolyl)phenoxy]-1-piperidyl]-[(2R)-tetrahydrofuran-2-yl]methanone, HCl]: the pIC50 was 7.00 to 9.00.
